Activity calls are given as the source filed them. No rule for the calls is given here.
Test system: rodent carcinogenicity bioassays, tumor incidence
Experiment: CCRIS carcinogenicity studies
Details: Dose: 0, Dose: 0
Summary of the method: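 Archive of carcinogenicity, mutagenicity, tumor promotion and tumor inhibition results drawn from journals, NCI reports and other sources, expert-reviewed; covers 1985-2011 and is no longer updated.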

CCCCC(CC)COP(=O)(OCC(CC)CCCC)OCC(CC)CCCC (stereo not drawn)
carcinogen call (Species: MOUSE, Strain/Sex: B6C3F1/FEMALE, Route: GAVAGE, 500, 1000 MG/KG IN CORN OIL 1/D 5 D/WK FOR 102-104 WK (STUDY DURATION: 102-104 WK), 500, 1000 MG/KG IN CORN OIL 1/D 5 D/WK FOR 102-104 WK (STUDY DURATION: 102-104 WK), Tumor Site: Type of Lesion: LIVER: CARCINOMA, CARCINOMA OR ADENOMA): active; positive | carcinogen call (Species: MOUSE, Strain/Sex: B6C3F1/FEMALE, Route: GAVAGE, 500, 1000 MG/KG IN CORN OIL 5/WK FOR 103 WK (STUDY DURATION: 104 WK), 500, 1000 MG/KG IN CORN OIL 5/WK FOR 103 WK (STUDY DURATION: 104 WK), Tumor Site: Type of Lesion: LIVER: ADENOMA, CARCINOMA): active; positive | carcinogen call (Species: MOUSE, Strain/Sex: B6C3F1/MALE, Route: GAVAGE, 500, 1000 MG/KG IN CORN OIL 1/D 5 D/WK FOR 102-104 WK (STUDY DURATION: 102-104 WK), 500, 1000 MG/KG IN CORN OIL 1/D 5 D/WK FOR 102-104 WK (STUDY DURATION: 102-104 WK)): inactive; negative | carcinogen call (Species: MOUSE, Strain/Sex: B6C3F1/MALE, Route: GAVAGE, 500, 1000 MG/KG IN CORN OIL 5/WK FOR 103 WK (STUDY DURATION: 104 WK), 500, 1000 MG/KG IN CORN OIL 5/WK FOR 103 WK (STUDY DURATION: 104 WK)): inactive; negative | carcinogen call (Species: RAT, Strain/Sex: F344/FEMALE, Route: GAVAGE, 1000, 2000 MG/KG IN CORN OIL 5/WK FOR 103 WK (STUDY DURATION: 103 WK), 1000, 2000 MG/KG IN CORN OIL 5/WK FOR 103 WK (STUDY DURATION: 103 WK)): inactive; negative | carcinogen call (Species: RAT, Strain/Sex: F344/FEMALE, Route: GAVAGE, 1000, 2000 MG/KG IN CORN OIL 5 D/WK FOR 102-104 WK (STUDY DURATION: 102-104 WK), 1000, 2000 MG/KG IN CORN OIL 5 D/WK FOR 102-104 WK (STUDY DURATION: 102-104 WK)): inactive; negative | carcinogen call (Species: RAT, Strain/Sex: F344/MALE, Route: GAVAGE, 2000, 4000 MG/KG IN CORN OIL 5/WK FOR 103 WK (STUDY DURATION: 104 WK), 2000, 4000 MG/KG IN CORN OIL 5/WK FOR 103 WK (STUDY DURATION: 104 WK), Tumor Site: Type of Lesion: ADRENAL GLAND: PHEOCHROMOCYTOMA): equivocal | carcinogen call (Species: RAT, Strain/Sex: F344/MALE, Route: GAVAGE, 2000, 4000 MG/KG IN CORN OIL 5 D/WK FOR 102-104 WK (STUDY DURATION: 102-104 WK), 2000, 4000 MG/KG IN CORN OIL 5 D/WK FOR 102-104 WK (STUDY DURATION: 102-104 WK)): inactive; negative

CN1[C@@H]2CC[C@H]1CC(OC(=O)C(CO)c1ccccc1)C2 (stereo partly drawn)
carcinogen call (Species: RAT, Strain/Sex: SPRAGUE-DAWLEY/FEMALE, Route: INTRAPERITONEAL, 25 UG/KG BW 2/D FOR 5 D TO VIRGIN FEMALE RATS (STUDY DURATION: 28 MO)): inactive; negative

S=C([S-])NCCNC(=S)[S-].[Zn+2]
carcinogen call (Species: MOUSE, Strain/Sex: CD/FEMALE, Route: ORAL, 100, 300 PPM IN DIET FOR 89 WK (STUDY DURATION: 94 WK), 100, 300 PPM IN DIET FOR 89 WK (STUDY DURATION: 94 WK)): inactive; negative | carcinogen call (Species: MOUSE, Strain/Sex: CD/FEMALE, Route: ORAL, 1000 PPM IN DIET FOR 88 WK (STUDY DURATION: 88 WK)): inactive; negative | carcinogen call (Species: MOUSE, Strain/Sex: CD/MALE, Route: ORAL, 100, 300, 1000 PPM IN DIET FOR 95 WK (STUDY DURATION: 96 WK), 100, 300, 1000 PPM IN DIET FOR 95 WK (STUDY DURATION: 96 WK)): inactive; negative | carcinogen call (Species: RAT, Strain/Sex: CD/FEMALE, Route: ORAL, 5, 20, 80, 320 PPM IN DIET FOR 112 WK (STUDY DURATION: 112 WK), 5, 20, 80, 320 PPM IN DIET FOR 112 WK (STUDY DURATION: 112 WK)): inactive; negative | carcinogen call (Species: RAT, Strain/Sex: CD/MALE, Route: ORAL, 5, 20, 80, 320 PPM IN DIET FOR 119 WK (STUDY DURATION: 119 WK), 5, 20, 80, 320 PPM IN DIET FOR 119 WK (STUDY DURATION: 119 WK)): inactive; negative

CC(C)C=O
carcinogen call (Species: MOUSE, Strain/Sex: B6C3F1/FEMALE, Route: INHALATION, 500, 1000, 2000 PPM 6 HR/D 5 D/WK FOR 105 WK (STUDY DURATION: 105 WK), 500, 1000, 2000 PPM 6 HR/D 5 D/WK FOR 105 WK (STUDY DURATION: 105 WK)): inactive; negative | carcinogen call (Species: MOUSE, Strain/Sex: B6C3F1/MALE, Route: INHALATION, 500, 1000, 2000 PPM 6 HR/D 5 D/WK FOR 105 WK (STUDY DURATION: 105 WK), 500, 1000, 2000 PPM 6 HR/D 5 D/WK FOR 105 WK (STUDY DURATION: 105 WK)): inactive; negative | carcinogen call (Species: RAT, Strain/Sex: F344/FEMALE, Route: INHALATION, 500, 1000, 2000 PPM 6 HR/D 5 D/WK FOR 105 WK (STUDY DURATION: 105 WK), 500, 1000, 2000 PPM 6 HR/D 5 D/WK FOR 105 WK (STUDY DURATION: 105 WK)): inactive; negative | carcinogen call (Species: RAT, Strain/Sex: F344/MALE, Route: INHALATION, 500, 1000, 2000 PPM 6 HR/D 5 D/WK FOR 105 WK (STUDY DURATION: 105 WK), 500, 1000, 2000 PPM 6 HR/D 5 D/WK FOR 105 WK (STUDY DURATION: 105 WK)): inactive; negative

CCCN(CCC)c1c([N+](=O)[O-])cc(C(F)(F)F)cc1[N+](=O)[O-]
carcinogen call (Species: MOUSE, Strain/Sex: B6C3F1/FEMALE, Route: ORAL, 563, 2250, 4500 PPM IN DIET FOR 2 YR (STUDY DURATION: 2 YR), 563, 2250, 4500 PPM IN DIET FOR 2 YR (STUDY DURATION: 2 YR)): inactive; negative | carcinogen call (Species: MOUSE, Strain/Sex: B6C3F1/FEMALE, Route: ORAL, 2740, 5192 PPM IN DIET, TWA, 2740, 5192 PPM IN DIET, TWA, Tumor Site: Type of Lesion: LUNG: ALVEOLAR/BRONCHIOLAR ADENOMA OR CARCINOMA, LIVER: HEPATOCELLULAR ADENOMA OR CARCINOMA): active; positive | carcinogen call (Species: MOUSE, Strain/Sex: B6C3F1/MALE, Route: ORAL, 563, 2250, 4500 PPM IN DIET FOR 2 YR (STUDY DURATION: 2 YR), 563, 2250, 4500 PPM IN DIET FOR 2 YR (STUDY DURATION: 2 YR)): inactive; negative | carcinogen call (Species: MOUSE, Strain/Sex: B6C3F1/MALE, Route: ORAL, 2000, 3744 PPM IN DIET, TWA, 2000, 3744 PPM IN DIET, TWA): inactive; negative | carcinogen call (Species: MOUSE, Strain/Sex: NMRI/FEMALE, Route: ORAL, 50, 200, 800 MG/KG IN DIET FOR 104 WK (STUDY DURATION: 104 WK), 50, 200, 800 MG/KG IN DIET FOR 104 WK (STUDY DURATION: 104 WK)): inactive; negative | carcinogen call (Species: MOUSE, Strain/Sex: NMRI/MALE, Route: ORAL, 50, 200, 800 MG/KG IN DIET FOR 104 WK (STUDY DURATION: 104 WK), 50, 200, 800 MG/KG IN DIET FOR 104 WK (STUDY DURATION: 104 WK)): inactive; negative | carcinogen call (Species: RAT, Strain/Sex: OSBORNE-MENDEL/FEMALE, Route: ORAL, 4125, 7917 PPM IN DIET, TWA, 4125, 7917 PPM IN DIET, TWA): inactive; negative | carcinogen call (Species: RAT, Strain/Sex: OSBORNE-MENDEL/MALE, Route: ORAL, 4125, 8000 PPM IN DIET, TWA, 4125, 8000 PPM IN DIET, TWA): inactive; negative | carcinogen call (Species: RAT, Strain/Sex: WISTAR/FEMALE, Route: ORAL, 200, 800, 3200 MG/KG IN DIET FOR 122 WK (STUDY DURATION: 122 WK), 200, 800, 3200 MG/KG IN DIET FOR 122 WK (STUDY DURATION: 122 WK)): inactive; negative | carcinogen call (Species: RAT, Strain/Sex: WISTAR/MALE, Route: ORAL, 200, 800, 3200 MG/KG IN DIET FOR 122 WK (STUDY DURATION: WK), 200, 800, 3200 MG/KG IN DIET FOR 122 WK (STUDY DURATION: WK)): inactive; negative

From PubChem BioAssay AID1259411 (Chemical Carcinogenesis Research Information System (CCRIS), 2018)
